ChEMBL document CHEMBL3885861, “Open TG-GATES”

Species on record: Rattus norvegicus
Experiment: Open TG-GATES - Regimen: Single
Type: toxicity, organism-based, Sprague-Dawley
Parameters: regimen Single, gender Male, age 6 weeks
Conditions: in vivo, po, route gavage; for Bas / Eos / Fbg / Ht / Lym / MCHC / MCV / Mono / Neu / PT / Plat / RBC / Ret / WBC / APTT / Hb: tissue Blood; for KIDNEY_L / KIDNEY_R / KIDNEY_TOTAL: tissue Kidney; for LIVER: tissue Liver; for ALP / ALT / AST / BUN / CRE / Ca / Cl / DBIL / GLC / IP / LDH / Na / PL / RALB / TBIL / TC / TG / TP / gamma-GTP: tissue Plasma
[1] = 120 mg/kg, 3 h, dose level Middle
[2] = 120 mg/kg, 6 h, dose level Middle
[3] = 120 mg/kg, 9 h, dose level Middle
[4] = 120 mg/kg, 24 h, dose level Middle
[5] = 400 mg/kg, 3 h, dose level High
[6] = 400 mg/kg, 6 h, dose level High
[7] = 400 mg/kg, 9 h, dose level High
[8] = 400 mg/kg, 24 h, dose level High

CC(C)N(CCC(C(N)=O)(c1ccccc1)c1ccccn1)C(C)C (stereo not drawn) [DISOPYRAMIDE]
Bas [1]: 0%
Eos [1]: 0.8%
Fbg [1]: 307.4 mg/dL
Ht [1]: 41.8%
Lym [1]: 77.4%
MCHC [1]: 32.3%
MCV [1]: 62.8 fL
Mono [1]: 2.2%
Neu [1]: 19%
PT [1]: 15.5 s
Plat [1]: 121.9 x10_4/uL
RBC [1]: 665.8 x10_4/ul
Ret [1]: 7.4%
WBC [1]: 63.5 x10_2/uL
KIDNEY_L [1]: 0.9 g
KIDNEY_R [1]: 1 g
KIDNEY_TOTAL [1]: 1.9 g
LIVER [1]: 9.5 g
ALP [1]: 1368.8 IU/L
ALT [1]: 51.2 IU/L
AST [1]: 89.2 IU/L
BUN [1]: 10.6 mg/dL
CRE [1]: 0.2 mg/dL
Ca [1]: 10.4 mg/dL
Cl [1]: 106 meq/L
DBIL [1]: 0.002 mg/dL
GLC [1]: 161 mg/dL
IP [1]: 8.5 mg/dL
LDH [1]: 202.4 IU/L
Na [1]: 141.6 meq/L
PL [1]: 124 mg/dL
RALB [1]: 3.1 g/dL
TBIL [1]: 0.002 mg/dL
TC [1]: 70.6 mg/dL
TG [1]: 47 mg/dL
TP [1]: 5.6 g/dL
gamma-GTP [1]: 1 IU/L
TERMINAL_BW [2]: 209.6 g
APTT [2]: 22.7 s
Bas [2]: 0%
Eos [2]: 0.8%
Fbg [2]: 320.6 mg/dL
Hb [2]: 12.9 g/dL
Ht [2]: 40.3%
Lym [2]: 72.2%
MCHC [2]: 31.9%
MCV [2]: 63.4 fL
Mono [2]: 2.6%
Neu [2]: 23.4%
PT [2]: 15.5 s
Plat [2]: 123.1 x10_4/uL
RBC [2]: 635.2 x10_4/ul
Ret [2]: 7.7%
WBC [2]: 86 x10_2/uL
KIDNEY_L [2]: 0.9 g
KIDNEY_R [2]: 1 g
KIDNEY_TOTAL [2]: 1.9 g
LIVER [2]: 9.2 g
ALP [2]: 1458 IU/L
ALT [2]: 41.2 IU/L
AST [2]: 72.6 IU/L
BUN [2]: 11.6 mg/dL
CRE [2]: 0.2 mg/dL
Ca [2]: 10.7 mg/dL
Cl [2]: 106 meq/L
DBIL [2]: 0.002 mg/dL
GLC [2]: 159.2 mg/dL
IP [2]: 9.1 mg/dL
LDH [2]: 198.6 IU/L
Na [2]: 139.4 meq/L
PL [2]: 142 mg/dL
RALB [2]: 3 g/dL
TBIL [2]: 0.002 mg/dL
TC [2]: 80.8 mg/dL
TG [2]: 82.2 mg/dL
TP [2]: 5.6 g/dL
gamma-GTP [2]: 1.4 IU/L
TERMINAL_BW [3]: 199.9 g
APTT [3]: 21.7 s
Bas [3]: 0%
Eos [3]: 0.8%
Fbg [3]: 330 mg/dL
Ht [3]: 41.9%
Lym [3]: 77.2%
MCHC [3]: 32.4%
MCV [3]: 64.1 fL
Mono [3]: 1.8%
Neu [3]: 19.8%
PT [3]: 15.7 s
Plat [3]: 117.5 x10_4/uL
RBC [3]: 653.4 x10_4/ul
Ret [3]: 7.3%
WBC [3]: 61.1 x10_2/uL
KIDNEY_L [3]: 0.9 g
KIDNEY_R [3]: 1 g
KIDNEY_TOTAL [3]: 1.9 g
LIVER [3]: 8.3 g
ALP [3]: 1309 IU/L
ALT [3]: 35.6 IU/L
AST [3]: 67.6 IU/L
BUN [3]: 13.6 mg/dL
CRE [3]: 0.2 mg/dL
Ca [3]: 10.7 mg/dL
Cl [3]: 107.6 meq/L
DBIL [3]: 0 mg/dL
GLC [3]: 149.6 mg/dL
IP [3]: 8.9 mg/dL
LDH [3]: 166 IU/L
Na [3]: 140.8 meq/L
PL [3]: 121 mg/dL
RALB [3]: 3.1 g/dL
TBIL [3]: 0.006 mg/dL
TC [3]: 63.2 mg/dL
TG [3]: 74 mg/dL
TP [3]: 5.6 g/dL
gamma-GTP [3]: 1.2 IU/L
TERMINAL_BW [4]: 220.9 g
APTT [4]: 21 s
Bas [4]: 0%
Eos [4]: 1%
Fbg [4]: 319 mg/dL
Ht [4]: 40.2%
Lym [4]: 80.8%
MCHC [4]: 32.7%
MCV [4]: 64.1 fL
Mono [4]: 1.8%
Neu [4]: 15.6%
PT [4]: 15.8 s
Plat [4]: 119.1 x10_4/uL
RBC [4]: 627.6 x10_4/ul
Ret [4]: 7.3%
WBC [4]: 89.5 x10_2/uL
KIDNEY_L [4]: 1 g
KIDNEY_R [4]: 1 g
KIDNEY_TOTAL [4]: 2 g
LIVER [4]: 11.2 g
ALP [4]: 1568 IU/L
ALT [4]: 53.6 IU/L
AST [4]: 76.6 IU/L
BUN [4]: 14.6 mg/dL
CRE [4]: 0.2 mg/dL
Ca [4]: 10.9 mg/dL
Cl [4]: 105.6 meq/L
DBIL [4]: 0 mg/dL
IP [4]: 8.9 mg/dL
LDH [4]: 160 IU/L
Na [4]: 143.4 meq/L
PL [4]: 157 mg/dL
RALB [4]: 3 g/dL
TBIL [4]: 0 mg/dL
TC [4]: 82.2 mg/dL
TG [4]: 118.2 mg/dL
TP [4]: 5.5 g/dL
gamma-GTP [4]: 1.6 IU/L
TERMINAL_BW [5]: 210.5 g
APTT [5]: 22.6 s
Bas [5]: 0%
Eos [5]: 1%
Fbg [5]: 327.6 mg/dL
Ht [5]: 41.8%
Lym [5]: 74.6%
MCHC [5]: 32.1%
MCV [5]: 62.7 fL
Mono [5]: 2.2%
Neu [5]: 22%
PT [5]: 15.5 s
Plat [5]: 127.1 x10_4/uL
RBC [5]: 667.8 x10_4/ul
Ret [5]: 8%
WBC [5]: 55.8 x10_2/uL
KIDNEY_L [5]: 1 g
KIDNEY_R [5]: 1 g
KIDNEY_TOTAL [5]: 1.9 g
LIVER [5]: 9.8 g
ALT [5]: 47.4 IU/L
AST [5]: 85.2 IU/L
BUN [5]: 12.2 mg/dL
CRE [5]: 0.1 mg/dL
Ca [5]: 10.2 mg/dL
Cl [5]: 106.2 meq/L
DBIL [5]: 0.002 mg/dL
GLC [5]: 129.8 mg/dL
IP [5]: 8.9 mg/dL
LDH [5]: 264.8 IU/L
Na [5]: 142.8 meq/L
PL [5]: 126.6 mg/dL
RALB [5]: 3 g/dL
TBIL [5]: 0 mg/dL
TC [5]: 74.2 mg/dL
TG [5]: 47.8 mg/dL
TP [5]: 5.6 g/dL
gamma-GTP [5]: 1 IU/L
TERMINAL_BW [6]: 207.1 g
APTT [6]: 22.8 s
Bas [6]: 0%
Eos [6]: 0.4%
Fbg [6]: 326 mg/dL
Ht [6]: 42.8%
Lym [6]: 73.2%
MCHC [6]: 31.8%
MCV [6]: 62.5 fL
Mono [6]: 2.6%
Neu [6]: 23.2%
PT [6]: 15.4 s
Plat [6]: 122.6 x10_4/uL
RBC [6]: 685.8 x10_4/ul
Ret [6]: 7.5%
WBC [6]: 67.9 x10_2/uL
KIDNEY_L [6]: 1 g
KIDNEY_R [6]: 1 g
KIDNEY_TOTAL [6]: 2 g
LIVER [6]: 9.2 g
ALP [6]: 1240.8 IU/L
ALT [6]: 38.8 IU/L
AST [6]: 74 IU/L
BUN [6]: 12.2 mg/dL
CRE [6]: 0.1 mg/dL
Ca [6]: 10.4 mg/dL
Cl [6]: 105.8 meq/L
DBIL [6]: 0.006 mg/dL
GLC [6]: 157.2 mg/dL
IP [6]: 8.7 mg/dL
LDH [6]: 237.8 IU/L
Na [6]: 140.6 meq/L
PL [6]: 132.2 mg/dL
RALB [6]: 3 g/dL
TBIL [6]: 0.006 mg/dL
TC [6]: 75.4 mg/dL
TG [6]: 43.2 mg/dL
TP [6]: 5.6 g/dL
gamma-GTP [6]: 1.6 IU/L
TERMINAL_BW [7]: 208.7 g
APTT [7]: 24 s
Bas [7]: 0%
Eos [7]: 0.4%
Fbg [7]: 326 mg/dL
Ht [7]: 42.6%
Lym [7]: 71.8%
MCHC [7]: 31.9%
MCV [7]: 62.9 fL
Mono [7]: 1.8%
Neu [7]: 25.4%
PT [7]: 15.7 s
Plat [7]: 120.6 x10_4/uL
RBC [7]: 677.6 x10_4/ul
Ret [7]: 7.7%
WBC [7]: 64.5 x10_2/uL
KIDNEY_L [7]: 1 g
KIDNEY_R [7]: 1 g
KIDNEY_TOTAL [7]: 2 g
LIVER [7]: 9 g
ALP [7]: 1238 IU/L
ALT [7]: 41 IU/L
AST [7]: 79 IU/L
BUN [7]: 14 mg/dL
CRE [7]: 0.1 mg/dL
Ca [7]: 10.6 mg/dL
Cl [7]: 106 meq/L
DBIL [7]: 0 mg/dL
GLC [7]: 145.6 mg/dL
IP [7]: 8.4 mg/dL
LDH [7]: 217.4 IU/L
Na [7]: 142 meq/L
PL [7]: 130.4 mg/dL
RALB [7]: 3.1 g/dL
TBIL [7]: 0 mg/dL
TC [7]: 70.8 mg/dL
TG [7]: 63.4 mg/dL
TP [7]: 5.8 g/dL
gamma-GTP [7]: 1.4 IU/L
TERMINAL_BW [8]: 215.7 g
APTT [8]: 23.1 s
Bas [8]: 0%
Eos [8]: 0.8%
Fbg [8]: 289.6 mg/dL
Hb [8]: 13 g/dL
Ht [8]: 40.3%
Lym [8]: 83%
MCHC [8]: 32.2%
MCV [8]: 63.1 fL
Mono [8]: 1.6%
PT [8]: 16.1 s
Plat [8]: 118.5 x10_4/uL
RBC [8]: 639.8 x10_4/ul
Ret [8]: 6.5%
WBC [8]: 82.6 x10_2/uL
KIDNEY_L [8]: 1 g
KIDNEY_R [8]: 1 g
KIDNEY_TOTAL [8]: 1.9 g
LIVER [8]: 8.8 g
ALP [8]: 1524 IU/L
ALT [8]: 48.2 IU/L
AST [8]: 78.6 IU/L
BUN [8]: 16 mg/dL
CRE [8]: 0.2 mg/dL
Ca [8]: 10.4 mg/dL
Cl [8]: 106 meq/L
DBIL [8]: 0 mg/dL
GLC [8]: 153.2 mg/dL
IP [8]: 8.8 mg/dL
LDH [8]: 215.8 IU/L
PL [8]: 133.2 mg/dL
RALB [8]: 2.8 g/dL
TBIL [8]: 0 mg/dL
TC [8]: 75 mg/dL
TG [8]: 58.2 mg/dL
TP [8]: 5.4 g/dL
gamma-GTP [8]: 2 IU/L
